“And” between values parts separate entries of the source, which are not always exact repeats. Equal values may be shown once.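 Five concentrations, 48 hours, 96-well plates. Here, GI50 denotes the concentration required for 50% inhibition of growth. Definition used: TGI = concentration required for complete inhibition of growth.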
What was measured:
Experiment in all cases: DTP human tumour cell line panel, 48 h
NCI-H522 lung = test system: NCI-H522 lung
PC-3 prostate = test system: PC-3 prostate
MOLT-4 leukemia = test system: MOLT-4 leukemia
UACC-62 melanoma = test system: UACC-62 melanoma
A498 renal = test system: A498 renal
SR leukemia = test system: SR leukemia
SK-OV-3 ovarian = test system: SK-OV-3 ovarian
SF-295 CNS = test system: SF-295 CNS
IGROV1 ovarian = test system: IGROV1 ovarian
KM12 colon = test system: KM12 colon

`O=C(NS(=O)(=O)c1ccc(NC[C@H]2COCCO2)c([N+](=O)[O-])c1)c1ccc(N2CCN(CC3=C(c4ccc(Cl)cc4)CC4(CCC4)CC3)CC2)cc1Oc1cnc2[nH]ccc2c1` gave a GI50 (NCI-H522 lung) of 1930 nM, a TGI (NCI-H522 lung) of 4.62 µM and a GI50 (PC-3 prostate) of 2430 nM. The TGI (PC-3 prostate) was 13.5 µM, the GI50 (MOLT-4 leukemia) was 1.36 µM and the TGI (MOLT-4 leukemia) was 5.22 µM. It also gave a GI50 (UACC-62 melanoma) of 1510 nM, a TGI (UACC-62 melanoma) of 3 µM and a GI50 (A498 renal) of 2360 nM. The TGI (A498 renal) was 5.74 µM, the GI50 (SR leukemia) was 1820 nM and the TGI (SR leukemia) was 5.31 µM. The GI50 (SK-OV-3 ovarian) was 1950 nM, the TGI (SK-OV-3 ovarian) was 4.57 µM and the GI50 (SF-295 CNS) was 1660 nM. It also gave a TGI (SF-295 CNS) of 4.08 µM, a GI50 (IGROV1 ovarian) of 1930 nM and a TGI (IGROV1 ovarian) of 3.91 µM. For the same compound, the GI50 (KM12 colon) was 2210 nM and the TGI (KM12 colon) was 5.11 µM.
In the case of `CCCCN(CC)CCCCCCCCCCN1CCCc2cc(OC)ccc21`, the GI50 (NCI-H522 lung) is reported as 1660 nM, the TGI (NCI-H522 lung) is reported as 3.5 µM and the GI50 (PC-3 prostate) is reported as 3060 nM. For the same compound, the TGI (PC-3 prostate) was 12.7 µM, the GI50 (MOLT-4 leukemia) was 3.09 µM and the TGI (MOLT-4 leukemia) was 10.5 µM. It also gave a GI50 (UACC-62 melanoma) of 2030 nM, a TGI (UACC-62 melanoma) of 5.31 µM and a GI50 (A498 renal) of 2360 nM. For the same compound, the TGI (A498 renal) was 9.54 µM, the GI50 (SR leukemia) was 1940 nM and the TGI (SR leukemia) was 5.56 µM. The GI50 (SK-OV-3 ovarian) was 5190 nM, the TGI (SK-OV-3 ovarian) was 21 µM and the GI50 (SF-295 CNS) was 1800 nM. The TGI (SF-295 CNS) was 3.72 µM, the GI50 (IGROV1 ovarian) was 3180 nM and the TGI (IGROV1 ovarian) was 12.9 µM. It also gave a GI50 (KM12 colon) of 2310 nM and a TGI (KM12 colon) of 5.14 µM.
`CC(C)OCc1cc(CN2CCN(c3cccc(Cl)c3)CC2)c(O)c2ncccc12` showed a GI50 (NCI-H522 lung) of 300 nM, a TGI (NCI-H522 lung) of 2.26 µM and a GI50 (PC-3 prostate) of 525 nM. It also gave a TGI (PC-3 prostate) of 16.9 µM, a GI50 (MOLT-4 leukemia) of 0.362 µM and a TGI (MOLT-4 leukemia) of 3.41 µM. It also gave a GI50 (UACC-62 melanoma) of 333 nM, a TGI (UACC-62 melanoma) of 1.43 µM and a GI50 (A498 renal) of 871 nM. It also gave a TGI (A498 renal) of 8.25 µM, a GI50 (SR leukemia) of 403 nM and a TGI (SR leukemia) of 10.2 µM. It also gave a GI50 (SK-OV-3 ovarian) of 710 nM, a TGI (SK-OV-3 ovarian) of 12.2 µM and a GI50 (SF-295 CNS) of 1070 nM. It also gave a TGI (SF-295 CNS) of 11.6 µM, a GI50 (IGROV1 ovarian) of 621 nM and a TGI (IGROV1 ovarian) of 16.6 µM. It also gave a GI50 (KM12 colon) of 574 nM and a TGI (KM12 colon) of 13.2 µM.
Compound `O=c1[nH]c2ccccc2n2cc3ccccc3c12` has a GI50 (NCI-H522 lung) of 13700 nM, a TGI (NCI-H522 lung) of 32.3 µM and a GI50 (PC-3 prostate) of 5740 nM. For the same compound, the TGI (PC-3 prostate) was 29.1 µM, the GI50 (MOLT-4 leukemia) was 3.62 µM and the TGI (MOLT-4 leukemia) was 8.77 µM. For the same compound, the GI50 (UACC-62 melanoma) was 3220 nM, the TGI (UACC-62 melanoma) was 15.8 µM and the GI50 (A498 renal) was 11100 nM. It also gave a TGI (A498 renal) of 26.7 µM, a GI50 (SR leukemia) of 2870 nM and a TGI (SR leukemia) of 7.7 µM. It also gave a GI50 (SK-OV-3 ovarian) of 12400 nM, a TGI (SK-OV-3 ovarian) of 35.8 µM and a GI50 (SF-295 CNS) of 17900 nM. It also gave a TGI (SF-295 CNS) of 35.8 µM, a GI50 (IGROV1 ovarian) of 10300 nM and a TGI (IGROV1 ovarian) of 25.4 µM. For the same compound, the GI50 (KM12 colon) was 19200 nM and the TGI (KM12 colon) was 40 µM.
`COc1ccc(/C=C/C(=O)c2ccc(Nc3nc(Nc4ccc(F)cc4)nc(Nc4ccc(Cl)cc4)n3)cc2)cc1` was tested, and the GI50 (NCI-H522 lung) was 36700 nM, the TGI (NCI-H522 lung) was > 100 µM and the GI50 (PC-3 prostate) was 30600 nM. The TGI (PC-3 prostate) was > 100 µM, the GI50 (MOLT-4 leukemia) was 11.9 µM and the TGI (MOLT-4 leukemia) was > 100 µM. The GI50 (UACC-62 melanoma) was > 100000 nM, the TGI (UACC-62 melanoma) was > 100 µM and the GI50 (A498 renal) was > 100000 nM. The TGI (A498 renal) was > 100 µM, the GI50 (SR leukemia) was 4680 nM and the TGI (SR leukemia) was 38.2 µM. The GI50 (SK-OV-3 ovarian) was > 100000 nM, the TGI (SK-OV-3 ovarian) was > 100 µM and the GI50 (SF-295 CNS) was > 100000 nM. The TGI (SF-295 CNS) was > 100 µM, the GI50 (IGROV1 ovarian) was 17700 nM and the TGI (IGROV1 ovarian) was > 100 µM. For the same compound, the GI50 (KM12 colon) was > 100000 nM and the TGI (KM12 colon) was > 100 µM.
In the case of `O=C(/C=C/c1cccc(S(=O)(=O)Nc2ccccc2)c1)NO`, the GI50 (NCI-H522 lung) is reported as 191 nM and 60.3 nM, the TGI (NCI-H522 lung) is reported as 1.98 µM and 17.2 µM and the GI50 (PC-3 prostate) is reported as 557 nM and 151 nM. The TGI (PC-3 prostate) was 51.2 µM and 21.8 µM, the TGI (MOLT-4 leukemia) was > 29.9 µM and the TGI (UACC-62 melanoma) was 1.53 µM and 0.196 µM. The GI50 (A498 renal) was 273 nM and 305 nM, the TGI (A498 renal) was 1.34 µM and 1.12 µM and the TGI (SR leukemia) was 22.8 µM. For the same compound, the GI50 (SK-OV-3 ovarian) was 457 nM and 486 nM, the TGI (SK-OV-3 ovarian) was 6.64 µM and > 29.4 µM and the GI50 (SF-295 CNS) was 579 nM and 603 nM. For the same compound, the TGI (SF-295 CNS) was 3.12 µM and 3.97 µM, the GI50 (IGROV1 ovarian) was 623 nM and 116 nM and the TGI (IGROV1 ovarian) was 4.43 µM and > 26.6 µM. For the same compound, the GI50 (KM12 colon) was 426 nM and 71.4 nM and the TGI (KM12 colon) was 9.14 µM and 10.7 µM.

Reference: PubChem BioAssay (NCI)
